According to patent US20200131227A1, “POLYPEPTIDE WITH TUMOUR BINDING ACTIVITY” (RUPRECHT-KARLS-UNIVERSITÄT HEIDELBERG, priority 2017, published 2020):
Where a SMILES comes first, the peptide text is derived from it. Bridges are numbered along the chain shown (N, C = ends). The star is where a group is joined. DOTA = O=C(O)CN1CCN(CC(=O)O)CCN(CC(=O)*)CCN(CC(=O)O)CC1

Tests used:
[1] = Serum stability assay (radio-HPLC); format: in vitro ADME, human
Procedure: Five MBq of the purified ^131I-radiolabeled peptide was incubated in 300 μL human serum at 37° C. After different time intervals (15 min to 24 hours) 20 μL serum was precipitated with 40 μL acetonitrile. The stability of the labeled peptide in the supernatant was monitored by radio-HPLC at selected time points using a chromolith performance RP18ec column (3 mm×100 mm) equipped with a gamma detector (Packard COBRA™ Auto-Gamma, GMI). Separation condition was a gradient of 0% to 60% aqueous acetonitrile supplemented with 0.1% TFA over 10 min with a flow rate of 2 mL/min.

[2] = target: ITGαvβ6 (Homo sapiens, UniProt P06756+P18564); test: Surface plasmon resonance assay (SPR), ITGαvβ6; format: binding; details: peptide immobilized, integrin as analyte, 1:1 Langmuir fit
Procedure: Assessment of the binding affinity was performed on a BiaCore X100 (GE Healthcare). To avoid denaturation of the heterodimer during amide activation ITGαvβ6 and ITGαvβ3, respectively, were used as analytes and SFITGv6 was immobilized at its N-terminus on a C1 sensor Chip (BR-1005-35, GE Healthcare) using a manual amine coupling protocol. Briefly, after activation of the sensor chip surface with a solution of EDC 0.4 M/NHS 0.1 M for 5 min a 100 μM peptide dissolved in HBS-EP running buffer (0.1 M HEPES, 30 mM EDTA, 1.5 M NaCl, 0.5% surfactant P20, pH 7.2) was immobilized with a contact time of 30 sec until a loading level of 18 response units (RU) was obtained. […] The SPR-sensogram data were evaluated with the BiaCore evaluation software. The dissociation constant (KD) was determined by a 1:1 Langmuir model fit of the SPR-sensograms.
Assessment of the binding affinity was performed on a BiaCore X100 (GE Healthcare). To avoid denaturation of the heterodimer during amide activation ITGαvβ6 and ITGαvβ3, respectively, were used as analytes and SFITGv6 was immobilized at its N-terminus on a C1 sensor Chip (BR-1005-35, GE Healthcare) using a manual amine coupling protocol. […] The SPR sensogram data were evaluated with the BiaCore evaluation software. The dissociation constant (KD) was determined by a 1:1 Langmuir model fit of the SPR sensograms.

[3] = tested on: HNSCC cell lines HNO97, HNO399, and HNO223; format: binding, human
Procedure: For the assessment of the peptide binding capacity in vitro, 2.5-4×10^5 cells were seeded into 6-well plates and cultivated for 48 h. ^125I-labeled peptide resuspended in 1 mL serum-free medium was added and incubated for either 10 min or 60 min with or without different concentrations of unlabeled peptide (10^−4-10^−11 M). Afterwards, cell monolayers were washed three times with 1 mL phosphate-buffered saline (pH 7.4) to remove unbound peptide and the cells were harvested with 1.4 mL lysis buffer (0.3 M NaOH). To evaluate kinetic properties the cells were exposed to ^177Lu-DOTA-labeled peptides for 10, 30, 60, 120, and 240 min, respectively, and lysed as described. For the efflux experiments the cells were incubated with ^177Lu-DOTA-labeled peptides for 60 min. Thereafter, radioactive medium was replaced by non-radioactive medium and cell monolayers were incubated for additional 60, 120, and 240 min and afterwards lysed as described earlier. The internalization was assessed after exposure of the cells to ^177Lu-DOTA-labeled peptides for 10, 30, 60, 120, and 240 min at 37° C. Unspecifically bound peptide was removed from the surface by incubation with 1 M glycine-HCl solution (pH 2.2) for 10 min. The monolayer cell was rinsed with PBS and cells were lysed as described before. Radioactivity was determined in a y-counter and calculated as percentage of the applied dose per 1×10^6 cells. […]

[4] = tested on: metastasized pancreatic cancer; test: PET/CT and scintigraphy of pancreatic cancer patient; format: in vivo, human; details: 1 day after 6.5 GBq
Procedure: PET/CT scans of tumor patients and body scintigraphy were performed as described in Example 1.

[5] = tested on: Capan-2 cells; test: In vitro binding, internalization and efflux on Capan-2 cells; format: cell-based, human
Procedure: For in vitro binding Studies, 4*10^5-6*10^5 cells were seeded in 6 well plates and cultivated for 24 to 48 hours. At the start of the experiment the medium was replaced with 1 ml serum free medium with a definite amount of radioactive labeled peptide per well. For normal binding assays the cells were incubated for 60 min at 37° C. and afterwards washed 3 times with PBS (pH 7.4). Cells were lysed with 2 times 0.5 ml of a 0.3 M NaOH +0.2% SDS lysis-buffer. Competition assays were performed with ^125I-labeled and unlabelled (10^−6 to 10^−11M) peptide and incubated at the same time for 60 min.
Cells were incubated for 10 to 240 min with ^177Lu-labelled peptide in internalization assays. After the washing steps, the cells were incubated with 1 ml glycine-HCl (1 M, pH 2.2) buffer for 10 min to remove surface bound peptide. Prior to the lyses the cells were washed again. Values are given as percentage of applied dose per 10^6 cells.
The efflux was tested with ^177Lu-labeled peptides. After 60 min incubation the radioactive medium was removed and 1 ml fresh serum-free medium was added. After additional incubation of 60, 120 or 240 min, cell bound activity was measured.

Compound | proteolytic stability in human serum [1] | Kd [2] | IC50 [3] | scintigraphic accumulation [4] | cell binding of ^177Lu-DOTA-labeled peptide ([5]; after 60 min) | internalization rate in comparison of the three peptides ([5]; after 4 hours) | efflux (released into the culture medium) ([5]; during 4 hours following 60 min exposure)
CSCC[C@@H]1NC(=O)[C@H](CC(C)C)NC(=O)[C@H](CC(=O)O)NC(=O)CNC(=O)[C@H](CCCNC(=N)N)NC(=O)[C@H](Cc2ccccc2)NC(=O)[C@H]([C@@H](C)O)NC(=O)[C@@H](NC(=O)[C@H](CCCNC(=N)N)NC(=O)CN)CSSC[C@@H](C(=O)N[C@@H](Cc2ccc(O)cc2)C(=O)N2CCC[C@H]2C(=O)N[C@@H](CC(=O)O)C(=O)O)NC(=O)[C@H](CC(C)C)NC(=O)[C@H](CCC(N)=O)NC1=O [SFITGv6, NH2-G-R-C1-T-F-R-G-D-L-M-Q-L-C1-Y-P-D-COOH] (H-GRCTFRGDLMQLCYPD-OH; disulfide 3-13) | outstanding stability in human serum over a period of 24 hours | 0.0148 ± 0.026 µM | 0.0141 µM | – | – | – | –
CC(C)C[C@@H]1NC(=O)[C@H](CC(=O)O)NC(=O)CNC(=O)[C@H](CCCNC(=N)N)NC(=O)CNC(=O)[C@H]([C@@H](C)O)NC(=O)[C@@H](NC(=O)[C@H](CCCNC(=N)N)NC(=O)CNC(=O)CN2CCN(CC(=O)O)CCN(CC(=O)O)CCN(CC(=O)O)CC2)CSSC[C@@H](C(=O)N[C@@H](Cc2ccc(O)cc2)C(=O)N2CCC[C@H]2C(=O)N[C@@H](CC(=O)O)C(N)=O)NC(=O)[C@H](CC(C)C)NC(=O)[C@H](CCCNC(=N)N)NC(=O)CNC1=O [^177Lu-DOTA-SFLAP3, metal not drawn] ({DOTA}-GRCTGRGDLGRLCYPD-NH2; disulfide 3-13; N-terminus and C-terminus assumed) | – | – | – | accumulation in the metastatic sites | 9.5% | highest internalization rate | 50%
